From patent publication US8119626B2, “Oxime derivative and preparations thereof” (Mitsubishi Tanabe Pharma Corporation, priority 2005, dated 2012)

These compounds were tested against T1, human-liver type GST-GK (Homo sapiens, UniProt P35557) (assay: Glucokinase activation effect (G6PDH-coupled NADPH assay)). Conditions: 5 mM glucose, 5 mM ATP, 30° C., absorbance 340 nm for 15 minutes, 5% DMSO.
T1 construct: made in house; host or cells: E. coli
T1 sequence (P35557 1-466 isoform P35557-2): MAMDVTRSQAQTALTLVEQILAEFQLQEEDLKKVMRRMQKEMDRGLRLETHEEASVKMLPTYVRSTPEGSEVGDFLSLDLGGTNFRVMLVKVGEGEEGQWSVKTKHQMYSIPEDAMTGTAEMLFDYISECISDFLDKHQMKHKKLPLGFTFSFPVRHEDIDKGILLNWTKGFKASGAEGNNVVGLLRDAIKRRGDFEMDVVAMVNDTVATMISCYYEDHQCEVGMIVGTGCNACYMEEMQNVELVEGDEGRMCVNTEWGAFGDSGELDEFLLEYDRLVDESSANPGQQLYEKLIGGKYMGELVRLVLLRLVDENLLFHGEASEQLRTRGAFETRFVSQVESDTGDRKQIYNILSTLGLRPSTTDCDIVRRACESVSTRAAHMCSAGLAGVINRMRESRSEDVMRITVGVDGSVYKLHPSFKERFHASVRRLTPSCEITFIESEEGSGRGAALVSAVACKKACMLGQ
Assay type: biochemical
Description: A glucokinase activity was examined by measuring the amount of NADPH obtained in generating 6-phosphogluconic acid from glucose-6-phosphoric acid by a coupling enzyme glucose-6-phosphate dehydrogenase not by measuring directly the produced glucose-6-phosphoric acid. The glucokinase enzyme used in the examination is human-liver type GST-GK expressed in E. Coli. The measurement of GK activity was carried out by the following procedures.
Twenty five mM HEPES buffer (pH7.4) containing 25 mM MgCl2, […], 1 mM DTT, 5 mM NADP (Roche), 16.64 μg/mL G6PDH (Roche 737-232 grade II from yeast) and 2.8 μg/mL GST-GK was prepared as a reaction solution. An evaluating compound dissolved in DMSO was added to the reaction solution to give final concentration of 0.001 to 100 μM (5% DMSO). Thereto was added glucose (final concentration of 5 mM) as a substrate and was added ATP (final concentration of 5 mM), and the reaction was started. The reaction temperature is 30° C. and a generation of NADPH was monitored by changes of absorbance of 340 nm. An increasing in absorbance for 15 minutes from starting reaction was measured and the blank-corrected value was used as GK activity (mOD/min). EC50 level was calculated by a GK activity level in at each concentration of an evaluating compound.

SMILES | EC50
O=C1CN(Cc2cnc(NC(=O)/C(=N/O[C@@H]3CCOC3)c3ccc(S(=O)(=O)C4CC4)cc3)s2)CCN1 [Example 6] | 1200 nM
CC(=O)N1CCN(Cc2cnc(NC(=O)/C(=N/O[C@@H]3CCOC3)c3ccc(S(=O)(=O)C4CC4)cc3)s2)C[C@@H]1C [Example 9] | 550 nM
CC(=O)N1CCN(Cc2cnc(NC(=O)/C(=N/O[C@@H]3CCOC3)c3ccc(S(=O)(=O)C4CC4)cc3)s2)CC1 [Example 10] | 790 nM
COCC(=O)N1[C@H](C)CN(Cc2cnc(NC(=O)/C(=N/O[C@@H]3CCOC3)c3ccc(S(=O)(=O)C4CC4)cc3)s2)C[C@@H]1C [Example 11] | 880 nM
CN(C)CCOc1ccc2nc(NC(=O)/C(=N/O[C@@H]3CCOC3)c3ccc(S(=O)(=O)C4CC4)cc3)sc2n1 [Example 13-3] | 170 nM
O=C(Nc1ncc(CN2CCOCC2)s1)/C(=N/O[C@@H]1CCOC1)c1ccc(S(=O)(=O)C2CC2)cc1 [Example 18-2] | 930 nM
COc1ccc2nc(NC(=O)/C(=N/O[C@@H]3CCOC3)c3ccc(S(=O)(=O)C4CC4)cc3)sc2n1 [Example 24-25] | 84 nM
O=C(O)CCSc1cnc(NC(=O)/C(=N/O[C@@H]2CCOC2)c2ccc(S(=O)(=O)C3CC3)cc2)s1 [Example 46-1] | 100 nM
CC(=O)N1CCC(OCc2cnc(NC(=O)/C(=N/O[C@@H]3CCOC3)c3ccc(S(=O)(=O)C4CC4)cc3)s2)CC1 [Example 56] | 320 nM
Cc1nsc(NC(=O)/C(=N/O[C@@H]2CC[C@@H](O)C2)c2ccc(S(=O)(=O)C3CC3)cc2)n1 [Example 116] | 570 nM

Further lines, results first:

EC50 | SMILES
410 nM | O=C(Nc1ncc(F)s1)/C(=N/OCc1ncccn1)c1ccc(S(=O)(=O)C2CC2)cc1 [Example 62-5]
270 nM | Cn1ccc(CO/N=C(/C(=O)Nc2ncc(F)s2)c2ccc(S(=O)(=O)C3CC3)cc2)n1 [Example 62-10]
390 nM | O=C(Nc1ncc(F)s1)/C(=N/OCCCO)c1ccc(S(=O)(=O)C2CC2)cc1 [Example 67-2]
260 nM | O=C(Nc1ncc(F)s1)/C(=N/O[C@@H]1CCOC1)c1ccc(S(=O)(=O)N2CCCOCC2)cc1 [Example 82-22]
600 nM | O=C(Nc1ncc(F)s1)/C(=N/O[C@@H]1CCOC1)c1ccc(S(=O)(=O)NCCF)cc1 [Example 82-78]
410 nM | Cn1ccnc1CS(=O)(=O)c1ccc(/C(=N\O[C@@H]2CCOC2)C(=O)Nc2ncc(F)s2)cc1 [Example 84-12]
520 nM | CS(=O)(=O)c1ccc(/C(=N\OC2CCCC2)C(=O)Nc2ncc(C(N)=O)s2)cc1 [Example 91-8]
510 nM | O=C(Nc1nccs1)/C(=N/OCc1ccccn1)c1ccc(S(=O)(=O)C2CC2)cc1 [Example 94-6]
840 nM | COCCCS(=O)(=O)c1ccc(/C(=N\O[C@@H]2CCOC2)C(=O)Nc2ncc(COC)s2)cc1 [Example 98-1]
230 nM | COCCCS(=O)(=O)c1ccc(/C(=N\O[C@@H]2CCOC2)C(=O)Nc2nc3ccc(OCCO)nc3s2)cc1 [Example 98-7]
300 nM | C[C@@H](CO)O/N=C(/C(=O)Nc1ncc(Cl)s1)c1ccc(S(=O)(=O)C2CC2)cc1 [Example 104-2]
540 nM | COc1cnc(NC(=O)/C(=N/O[C@@H]2CC[C@@H](OC)C2)c2ccc(S(=O)(=O)C3CC3)cc2)cn1 [Example 139-41]
350 nM | CCN(CCO)S(=O)(=O)c1ccc(/C(=N\O[C@@H]2CCOC2)C(=O)Nc2cnc(C3CC3)cn2)cc1 [Example 139-94]
760 nM | COCCN(C)S(=O)(=O)c1ccc(/C(=N\O[C@@H]2CCOC2)C(=O)Nc2ncc(CN3CCN(C)CC3)s2)cc1 [Example 139-125]
180 nM | COCCCS(=O)(=O)c1ccc(/C(=N\OCc2ncccn2)C(=O)Nc2nc3ccc(OC)nc3s2)cc1 [Example 139-134]
520 nM | COCCCS(=O)(=O)c1ccc(/C(=N\OC2CCCC2)C(=O)Nc2ccc(C(N)=O)cn2)cc1 [Example 139-159]
520 nM | COCCCS(=O)(=O)c1ccc(/C(=N\O[C@@H]2CC[C@@H](O)C2)C(=O)Nc2ncc(C)s2)cc1 [Example 139-182]
570 nM | COCCCS(=O)(=O)c1ccc(/C(=N\O[C@@H]2CCOC2)C(=O)Nc2nc3ccc(OCCO)cc3s2)cc1 [Example 139-214]
130 nM | CNc1ccc2nc(NC(=O)/C(=N/O[C@@H]3CCOC3)c3ccc(S(=O)(=O)CCCOC)cc3)sc2n1 [Example 139-221]
600 nM | CC(=O)N1CCN(Cc2cnc(NC(=O)/C(=N/O[C@@H]3CCOC3)c3ccc(S(=O)(=O)[C@H]4CCOC4)cc3)s2)C[C@H]1C [Example 139-237]
460 nM | CNCCOc1ccc2nc(NC(=O)/C(=N/O[C@@H]3CCOC3)c3ccc(S(=O)(=O)NCCO)cc3)sc2n1 [Example 139-244]
